# Measured values from patent US11479556B1, “Bifunctional compounds for degrading BTK via ubiquitin proteosome pathway” (NURIX THERAPEUTICS, INC., priority 2018, dated 2022).
# Target: T1, BTK (Homo sapiens, UniProt Q06187)
# T1 construct: endogenous in cells; host or cells: TMD8 cells
# Experiment: Cellular BTK HTRF assay (BTK degradation) in TMD8 cells
# Format: cell-based
# Conditions: four hours incubation, Total-BTK HTRF relative to DMSO-treated cells
# Method in brief: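 TMD8 cells were treated with compounds (final DMSO <0.200) for four hours at 37° C, 5% CO2, then lysed for 30 minutes. Total BTK was measured by two-antibody HTRF, taking the 665/620 nm ratio with background subtracted and expressed relative to DMSO-treated cells. DC50 came from four-parameter nonlinear regression.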
# T1 sequence (Q06187 whole entry): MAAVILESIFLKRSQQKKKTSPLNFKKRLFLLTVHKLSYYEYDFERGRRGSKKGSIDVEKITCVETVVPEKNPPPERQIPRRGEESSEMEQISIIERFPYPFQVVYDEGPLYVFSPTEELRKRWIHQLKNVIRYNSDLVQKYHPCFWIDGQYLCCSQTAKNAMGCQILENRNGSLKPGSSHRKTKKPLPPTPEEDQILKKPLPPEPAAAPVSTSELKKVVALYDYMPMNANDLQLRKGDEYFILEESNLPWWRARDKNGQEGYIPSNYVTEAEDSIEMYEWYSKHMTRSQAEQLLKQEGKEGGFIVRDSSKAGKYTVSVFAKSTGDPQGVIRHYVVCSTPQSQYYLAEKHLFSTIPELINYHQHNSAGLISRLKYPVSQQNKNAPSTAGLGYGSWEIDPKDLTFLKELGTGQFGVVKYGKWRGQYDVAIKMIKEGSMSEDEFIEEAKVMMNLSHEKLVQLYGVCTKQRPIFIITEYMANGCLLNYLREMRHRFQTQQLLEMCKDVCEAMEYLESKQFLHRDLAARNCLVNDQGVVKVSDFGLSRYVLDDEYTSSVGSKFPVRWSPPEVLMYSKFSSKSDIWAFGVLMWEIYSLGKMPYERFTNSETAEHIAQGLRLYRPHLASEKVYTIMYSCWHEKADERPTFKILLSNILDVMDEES
row,Compound,DC50 [nM]
1,CN1CCN([C@@H]2CCCN(c3cnc(C(N)=O)c(Nc4ccc(C5(C)CCN(C(=O)CCOCCC(=O)Nc6cccc7c6CN(C6CCC(=O)NC6=O)C7=O)CC5)cc4)n3)C2)C1=O (stereo partly drawn) [Compound 14],> 15
2,CN1CCN([C@@H]2CCCN(c3cnc(C(N)=O)c(Nc4ccc(N5CCN(CCCCc6cccc7c6CN(C6CCC(=O)NC6=O)C7=O)CC5)cc4)n3)C2)C1=O (stereo partly drawn) [Compound 17],< 5
3,CN1CCN([C@@H]2CCCN(c3cnc(C(N)=O)c(Nc4ccc(C5CCN(C(=O)CCOCCNc6cccc7c6C(=O)N(C6CCC(=O)NC6=O)C7=O)CC5)cc4)n3)C2)C1=O (stereo partly drawn) [Compound 25],5 to 15
4,CN1CCN([C@@H]2CCCN(c3cnc(C(N)=O)c(Nc4ccc(N5CCC6(CCCN(c7ccc8c(c7)C(=O)N(C7CCC(=O)NC7=O)C8=O)C6)CC5)cc4)n3)C2)C1=O (stereo partly drawn) [Compound 29],< 5
5,CN1CCN([C@@H]2CCCN(c3cnc(C(N)=O)c(Nc4ccc5c(c4)CCN(C4CN(c6ccc7c(c6)C(=O)N(C6CCC(=O)NC6=O)C7=O)C4)C5)n3)C2)C1=O (stereo partly drawn) [Compound 30],5 to 15
6,CN1CCN([C@@H]2CCCN(c3cnc(C(N)=O)c(Nc4ccc5c(c4)CCN(CC4CCN(c6ccc7c(c6)C(=O)N(C6CCC(=O)NC6=O)C7=O)CC4)C5)n3)C2)C1=O (stereo partly drawn) [Compound 31],< 5
7,NC(=O)c1ncc(N2CCC(CO)CC2)nc1Nc1ccc(C2CCN(C[C@@H]3CCN(c4ccc5c(c4)C(=O)N(C4CCC(=O)NC4=O)C5=O)C3)CC2)cc1 (stereo partly drawn) [Compound 160],< 5
8,NC(=O)c1ncc(N2CCOCC2)nc1Nc1ccc(C2CCN(C[C@H]3CCN(c4ccc5c(c4)C(=O)N(C4CCC(=O)NC4=O)C5=O)C3)CC2)cc1 (stereo partly drawn) [Compound 161],5 to 15
9,NC(=O)c1ncc(N2CCC2)nc1Nc1ccc(C2CCN(C[C@H]3CCN(c4ccc5c(c4)C(=O)N(C4CCC(=O)NC4=O)C5=O)C3)CC2)cc1 (stereo partly drawn) [Compound 162],< 5
10,NC(=O)c1ncc(N2CCCCC2)nc1Nc1ccc(C2CCN(CC3CCN(c4ccc5ccn(C6CCC(=O)NC6=O)c(=O)c5c4)CC3)CC2)cc1 (stereo not drawn) [Compound 163],< 5
11,NC(=O)c1ncc(N2CCCCC2)nc1Nc1ccc(C2CCN(CC3CCN(c4ccc(OC5CCC(=O)NC5=O)cn4)CC3)CC2)cc1 (stereo not drawn) [Compound 164],5 to 15
12,CN1CCN([C@@H]2CCCN(c3cnc(C(N)=O)c(Nc4ccc(C5CCN(CC6CCN(c7ccc(OC8CCC(=O)NC8=O)cn7)CC6)CC5)cc4)n3)C2)C1=O (stereo partly drawn) [Compound 165],5 to 15
13,NC(=O)c1ncc(N2CCCCC2)nc1Nc1ccc(C2CCN(CC3CCN(c4ccc(NC5CCC(=O)NC5=O)cn4)CC3)CC2)cc1 (stereo not drawn) [Compound 167],> 15
14,NC(=O)c1ncc(N2CCC[C@@H](N3CCCC3=O)C2)nc1Nc1ccc(N2CC(C3CCN(c4ccc5c(c4)C(=O)N(C4CCC(=O)NC4=O)C5=O)CC3)C2)nc1 (stereo partly drawn) [Compound 168],< 5
15,NC(=O)c1ncc(N2CCC[C@@H](N3CCCC3=O)C2)nc1Nc1ccc(N2CC(C3CCN(c4ccc5c(c4)C(=O)N(C4CCC(=O)NC4=O)C5=O)CC3)C2)cc1 (stereo partly drawn) [Compound 169],< 5
16,NC(=O)c1ncc(N2CCC[C@@H](CO)C2)nc1Nc1ccc(C2CCN(CC3CCN(c4ccc(NC5CCC(=O)NC5=O)cn4)CC3)CC2)cc1 (stereo partly drawn) [Compound 170],< 5
17,NC(=O)c1ncc(N2CCC[C@@H](CO)C2)nc1Nc1ccc(C2CCN(CC3CCN(c4ccc(OC5CCC(=O)NC5=O)cn4)CC3)CC2)cc1 (stereo partly drawn) [Compound 171],< 5
18,NC(=O)c1ncc(N2CCC[C@@H](CO)C2)nc1Nc1ccc(C2CCN(CC3CCN(c4ccc5c(=O)n(C6CCC(=O)NC6=O)ccc5c4)CC3)CC2)cc1 (stereo partly drawn) [Compound 172],< 5
19,NC(=O)c1ncc(N2CCC[C@@H](CO)C2)nc1Nc1ccc(C2CCN(CC3CCN(c4ccc(C(=O)NC5CCC(=O)NC5=O)nc4)CC3)CC2)cc1 (stereo partly drawn) [Compound 173],< 5
20,NC(=O)c1ncc(N2CCC[C@@H](CO)C2)nc1Nc1ccc(C2CCN(C[C@H]3CCN(c4ccc5c(c4)C(=O)N(C4CCC(=O)NC4=O)C5=O)C3)CC2)cc1 (stereo partly drawn) [Compound 174],< 5

row,Compound,DC50 [nM]
1,NC(=O)c1ncc(N2CCC(F)(F)C(CO)C2)nc1Nc1ccc(C2CCN(C[C@H]3CCN(c4ccc5c(c4)C(=O)N(C4CCC(=O)NC4=O)C5=O)C3)CC2)cc1 (stereo partly drawn) [Compound 175],< 5
2,NC(=O)c1ncc(N2CCC3(COC3)C2)nc1Nc1ccc(C2CCN(C[C@H]3CCN(c4ccc5c(c4)C(=O)N(C4CCC(=O)NC4=O)C5=O)C3)CC2)cc1 (stereo partly drawn) [Compound 176],< 5
3,NC(=O)c1ncc(N2CCCC3(COC3)C2)nc1Nc1ccc(C2CCN(CC3CCN(c4ccc5c(=O)n(C6CCC(=O)NC6=O)ccc5c4)CC3)CC2)cc1 (stereo not drawn) [Compound 177],< 5
4,Cn1c(-c2ccc(N3CCC(CN4CCC(c5ccc(Nc6nc(N7CCCC8(COC8)C7)cnc6C(N)=O)cc5)CC4)CC3)cc2)nn(C2CCC(=O)NC2=O)c1=O (stereo not drawn) [Compound 178],5 to 15
5,Cn1c(=O)n(C2CCC(=O)NC2=O)c2ccc(N3CCC(CN4CCC(c5ccc(Nc6nc(N7CCCCC7)cnc6C(N)=O)cc5)CC4)CC3)cc21 (stereo not drawn) [Compound 179],< 5
6,CN1CCN([C@@H]2CCCN(c3cnc(C(N)=O)c(Nc4ccc(C5CCN(CC6CCN(c7ccc(N(C)C8CCC(=O)NC8=O)cn7)CC6)CC5)cc4)n3)C2)C1=O (stereo partly drawn) [Compound 180],> 15
7,CN(c1ccc(N2CCC(CN3CCC(c4ccc(Nc5nc(N6CCCCC6)cnc5C(N)=O)cc4)CC3)CC2)nc1)C1CCC(=O)NC1=O (stereo not drawn) [Compound 181],5 to 15
8,NC(=O)c1ncc(N2CCCCC2)nc1Nc1ccc(C2CCN(CC3CCN(c4ccc(C(=O)NC5CCC(=O)NC5=O)nc4)CC3)CC2)cc1 (stereo not drawn) [Compound 182],< 5
9,CNC(C)C(=O)N[C@H](C(=O)N1C[C@@H](NC(=O)CCOCCOCCOCCOCCC(=O)N2CCC(c3ccc(Nc4nc(N5CCC[C@@H](N6CCN(C)C6=O)C5)cnc4C(N)=O)cc3)CC2)C[C@H]1C(=O)N[C@@H]1CCCc2ccccc21)C1CCCCC1 (stereo partly drawn) [Compound 183],> 15
10,CN1CCN([C@@H]2CCCN(c3cnc(C(N)=O)c(Nc4ccc(C5CCN(C(=O)CNc6cccc7c6C(=O)N(C6CCC(=O)NC6=O)C7=O)CC5)cc4)n3)C2)C1=O (stereo partly drawn) [Compound 184],5 to 15
11,NC(=O)c1ncc(N2CCCCC2)nc1Nc1ccc(C2CCN(CC3CCN(c4ccc(CC5CCC(=O)NC5=O)cn4)CC3)CC2)cc1 (stereo not drawn) [Compound 185],> 15
12,Cc1ncsc1-c1ccc(CNC(=O)[C@@H]2C[C@@H](O)CN2C(=O)[C@@H](NC(=O)C2(F)CC2)C(C)(C)C)c(OCCCCCCCC(=O)N2CCC(c3ccc(Nc4nc(N5CCC[C@@H](N6CCN(C)C6=O)C5)cnc4C(N)=O)cc3)CC2)c1 [Compound 186],> 15
13,Cc1ncsc1-c1ccc(CNC(=O)[C@@H]2C[C@@H](O)CN2C(=O)[C@@H](NC(=O)C2(F)CC2)C(C)(C)C)c(OCCCCCC(=O)N2CCC(c3ccc(Nc4nc(N5CCC[C@@H](N6CCN(C)C6=O)C5)cnc4C(N)=O)cc3)CC2)c1 [Compound 187],> 15
14,Cc1ncsc1-c1ccc([C@H](C)NC(=O)[C@@H]2C[C@@H](O)CN2C(=O)[C@@H](NC(=O)CCCCCCCC(=O)N2CCC(c3ccc(Nc4nc(N5CCC[C@@H](N6CCN(C)C6=O)C5)cnc4C(N)=O)cc3)CC2)C(C)(C)C)cc1 [Compound 188],> 15
15,Cc1ncsc1-c1ccc([C@H](C)NC(=O)[C@@H]2C[C@@H](O)CN2C(=O)[C@@H](NC(=O)CCCCCC(=O)N2CCC(c3ccc(Nc4nc(N5CCC[C@@H](N6CCN(C)C6=O)C5)cnc4C(N)=O)cc3)CC2)C(C)(C)C)cc1 [Compound 189],> 15
16,CN1CCN([C@@H]2CCCN(c3cnc(C(N)=O)c(Nc4ccc(C5CCN(CC6CCN(c7ccc(CC8CCC(=O)NC8=O)cn7)CC6)CC5)cc4)n3)C2)C1=O (stereo partly drawn) [Compound 190],5 to 15
17,NC(=O)c1ncc(N2CCCCC2)nc1Nc1ccc(C2CCN(CC3CCN(c4ncc(C(=O)NC5CCC(=O)NC5=O)o4)CC3)CC2)cc1 (stereo not drawn) [Compound 191],5 to 15
18,CN1CCN([C@@H]2CCCN(c3cnc(C(N)=O)c(Nc4ccc(C5CCN(CC6CCN(c7ncc(C(=O)NC8CCC(=O)NC8=O)o7)CC6)CC5)cc4)n3)C2)C1=O (stereo partly drawn) [Compound 192],< 5
19,NC(=O)c1ncc(N2CCC[C@@H](CO)C2)nc1Nc1ccc(C2CCN(C[C@@H]3CCN(c4ccc5c(c4)C(=O)N(C4CCC(=O)NC4=O)C5=O)C3)CC2)cc1 (stereo partly drawn) [Compound 193],< 5

# Target: T2, Aiolos (Homo sapiens, UniProt Q96SW2+Q9UKT9)
# T2 construct: Frozen human peripheral blood mononuclear cells (PBMCs) were thawed and treated with DMSO or compound for 24 hours; endogenous in cells; host or cells: human PBMCs (T cells gated CD3+CD20-)
# T2 sequence (Q9UKT9 whole entry): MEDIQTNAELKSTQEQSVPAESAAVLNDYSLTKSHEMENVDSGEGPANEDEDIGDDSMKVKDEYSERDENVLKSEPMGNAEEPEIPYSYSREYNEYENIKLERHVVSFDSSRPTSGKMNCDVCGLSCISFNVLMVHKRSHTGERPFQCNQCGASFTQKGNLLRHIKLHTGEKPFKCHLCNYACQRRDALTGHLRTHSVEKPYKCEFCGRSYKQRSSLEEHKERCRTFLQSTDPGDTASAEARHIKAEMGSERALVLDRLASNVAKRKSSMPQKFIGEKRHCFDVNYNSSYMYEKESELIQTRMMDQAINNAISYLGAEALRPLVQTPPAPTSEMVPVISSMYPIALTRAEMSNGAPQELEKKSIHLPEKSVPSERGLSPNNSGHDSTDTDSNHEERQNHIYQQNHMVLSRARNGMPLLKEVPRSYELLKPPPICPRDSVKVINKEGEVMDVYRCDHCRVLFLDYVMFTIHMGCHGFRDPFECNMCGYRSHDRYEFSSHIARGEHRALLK
# T2 sequence (Q96SW2 whole entry): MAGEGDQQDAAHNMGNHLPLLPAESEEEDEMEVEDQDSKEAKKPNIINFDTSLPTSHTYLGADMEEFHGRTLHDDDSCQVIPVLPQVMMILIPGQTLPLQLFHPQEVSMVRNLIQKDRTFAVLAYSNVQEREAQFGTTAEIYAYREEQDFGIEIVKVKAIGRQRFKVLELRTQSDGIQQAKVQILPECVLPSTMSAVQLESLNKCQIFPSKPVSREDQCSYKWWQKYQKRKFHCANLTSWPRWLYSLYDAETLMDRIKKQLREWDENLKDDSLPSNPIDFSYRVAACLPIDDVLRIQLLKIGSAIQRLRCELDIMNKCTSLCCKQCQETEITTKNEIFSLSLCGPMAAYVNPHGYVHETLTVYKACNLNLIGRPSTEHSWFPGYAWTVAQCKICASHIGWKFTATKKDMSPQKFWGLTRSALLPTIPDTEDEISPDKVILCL
# T2 sequence (Q16531 whole entry partner): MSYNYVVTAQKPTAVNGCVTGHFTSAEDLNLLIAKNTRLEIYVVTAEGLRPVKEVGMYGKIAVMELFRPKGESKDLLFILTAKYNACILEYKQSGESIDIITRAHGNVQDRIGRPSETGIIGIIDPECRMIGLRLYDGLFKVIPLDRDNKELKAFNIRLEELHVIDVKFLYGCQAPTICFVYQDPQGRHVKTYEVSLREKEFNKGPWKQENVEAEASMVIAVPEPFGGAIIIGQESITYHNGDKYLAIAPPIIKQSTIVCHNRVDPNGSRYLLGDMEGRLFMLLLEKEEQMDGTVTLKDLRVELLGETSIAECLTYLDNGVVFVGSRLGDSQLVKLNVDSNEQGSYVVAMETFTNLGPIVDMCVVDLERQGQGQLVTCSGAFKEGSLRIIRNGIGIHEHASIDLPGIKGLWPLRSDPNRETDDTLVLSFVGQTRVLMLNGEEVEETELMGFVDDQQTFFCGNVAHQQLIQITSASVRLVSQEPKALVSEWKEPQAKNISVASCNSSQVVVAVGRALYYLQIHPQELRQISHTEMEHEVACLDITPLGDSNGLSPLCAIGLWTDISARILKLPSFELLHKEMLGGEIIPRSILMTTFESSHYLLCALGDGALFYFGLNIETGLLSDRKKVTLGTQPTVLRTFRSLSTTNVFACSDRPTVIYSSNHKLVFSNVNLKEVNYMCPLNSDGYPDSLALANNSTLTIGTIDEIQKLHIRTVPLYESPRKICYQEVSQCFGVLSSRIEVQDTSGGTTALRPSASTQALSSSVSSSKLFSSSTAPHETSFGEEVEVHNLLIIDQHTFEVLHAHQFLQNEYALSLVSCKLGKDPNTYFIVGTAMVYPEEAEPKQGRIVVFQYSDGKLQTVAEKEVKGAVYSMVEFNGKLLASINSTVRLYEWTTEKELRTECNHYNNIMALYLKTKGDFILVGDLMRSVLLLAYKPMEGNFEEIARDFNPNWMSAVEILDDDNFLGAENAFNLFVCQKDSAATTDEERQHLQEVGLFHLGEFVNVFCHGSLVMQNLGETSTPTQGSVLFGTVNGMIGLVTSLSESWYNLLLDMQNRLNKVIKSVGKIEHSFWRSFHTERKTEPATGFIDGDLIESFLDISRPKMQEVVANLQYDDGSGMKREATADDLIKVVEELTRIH
# Experiment: Aiolos degradation flow cytometry assay in human PBMCs (T cells)
# Format: cell-based
# Conditions: 24 hours, T cells (CD3+CD20-), read-out: Aiolos T Cell DC50
# Protocol: Example 67: Aiolos Degradation Assay
# Frozen human peripheral blood mononuclear cells (PBMCs) were thawed and treated with DMSO or compound for 24 hours and then fixed and permeabilized using a Foxp3/Transcription Factor Fixation/Permeabilization Kit (eBioscience, 00-5523). Cells were stained with fluorophore-conjugated antibodies against CD20 (Biolegend 302330), CD3 (BD Pharmingen 552127), and Aiolos (Biolegend 371106). An additional set of DMSO-treated PBMCs was stained for CD20, CD3, and an AlexaFluor 647-conjugated mouse IgG1 isotype control antibody (Biolegend 400136). Stained cells were analyzed using an Attune NxT Acoustic Focusing Flow Cytometer (Thermo-Fisher A29004), and data was analyzed using FlowJo (v10.5.3) and GraphPad Prism (v7.00) software. Single lymphocytes were gated for B cells (CD20+CD3−) and T cells (CD3+CD20−), and the geometric mean fluorescence intensity (MFI) of Aiolos was calculated for each population. The MFI of the isotype control was calculated for each population and used to quantify background staining. Percent Aiolos degradation was calculated for each compound-treated sample using the following equation: […]
# Four-parameter non-linear regressions were performed in GraphPad Prism 7.02 to obtain DC50 values. Aiolos T Cell DC50 values are provided in Table 4, wherein A<10.0 nM, 10.0 nM≤B≤1000 nM, and 1000 nM<C.
row,Compound,DC50 [nM]
1,CN1CCN([C@@H]2CCCN(c3cnc(C(N)=O)c(Nc4ccc(C5(C)CCN(C(=O)CCOCCC(=O)Nc6cccc7c6CN(C6CCC(=O)NC6=O)C7=O)CC5)cc4)n3)C2)C1=O (stereo partly drawn) [Compound 14],> 1000
2,CN1CCN([C@@H]2CCCN(c3cnc(C(N)=O)c(Nc4ccc(N5CCN(CCCCc6cccc7c6CN(C6CCC(=O)NC6=O)C7=O)CC5)cc4)n3)C2)C1=O (stereo partly drawn) [Compound 17],10 to 1000
3,CN1CCN([C@@H]2CCCN(c3cnc(C(N)=O)c(Nc4ccc(C5CCN(C(=O)CCOCCNc6cccc7c6C(=O)N(C6CCC(=O)NC6=O)C7=O)CC5)cc4)n3)C2)C1=O (stereo partly drawn) [Compound 25],< 10
4,CN1CCN([C@@H]2CCCN(c3cnc(C(N)=O)c(Nc4ccc(N5CCC6(CCCN(c7ccc8c(c7)C(=O)N(C7CCC(=O)NC7=O)C8=O)C6)CC5)cc4)n3)C2)C1=O (stereo partly drawn) [Compound 29],> 1000
5,CN1CCN([C@@H]2CCCN(c3cnc(C(N)=O)c(Nc4ccc5c(c4)CCN(C4CN(c6ccc7c(c6)C(=O)N(C6CCC(=O)NC6=O)C7=O)C4)C5)n3)C2)C1=O (stereo partly drawn) [Compound 30],< 10
6,CN1CCN([C@@H]2CCCN(c3cnc(C(N)=O)c(Nc4ccc5c(c4)CCN(CC4CCN(c6ccc7c(c6)C(=O)N(C6CCC(=O)NC6=O)C7=O)CC4)C5)n3)C2)C1=O (stereo partly drawn) [Compound 31],10 to 1000
